In PubChem BioAssay (NCI):
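Where inhibition never reached the appropriate level, the endpoint shown equals the highest concentration tested. Otherwise, values were interpolated linearly from a five-concentration, 48-hour dose response in 96-well plates. Here, GI50 denotes the concentration required for 50% inhibition of growth. TGI denotes the concentration required for complete inhibition of growth.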

How the values were obtained:
Assay in all cases: NCI-60 cell line screen, 48 h
OVCAR-8 ovarian = system: OVCAR-8 ovarian
NCI-H460 lung = system: NCI-H460 lung
NCI-H23 lung = system: NCI-H23 lung
HOP-62 NSCLC = system: HOP-62 NSCLC
MOLT-4 leukemia = system: MOLT-4 leukemia
U251 CNS = system: U251 CNS
HS 578T breast = system: HS 578T breast
IGROV1 ovarian = system: IGROV1 ovarian
CCRF-CEM leukemia = system: CCRF-CEM leukemia
M14 melanoma = system: M14 melanoma
SNB-75 CNS = system: SNB-75 CNS
SR leukemia = system: SR leukemia
A549 NSCLC = system: A549 NSCLC
SW-620 colon = system: SW-620 colon
OVCAR-4 ovarian = system: OVCAR-4 ovarian
LOX IMVI melanoma = system: LOX IMVI melanoma
TK-10 renal = system: TK-10 renal
HCC-2998 colon = system: HCC-2998 colon
OVCAR-3 ovarian = system: OVCAR-3 ovarian
A498 renal = system: A498 renal
HCT-15 colon = system: HCT-15 colon
KM12 colon = system: KM12 colon
SK-MEL-28 melanoma = system: SK-MEL-28 melanoma
PC-3 prostate = system: PC-3 prostate
786-0 renal = system: 786-0 renal
SN12C renal = system: SN12C renal
SF-295 CNS = system: SF-295 CNS
UACC-257 melanoma = system: UACC-257 melanoma
MCF7 breast = system: MCF7 breast
SF-268 CNS = system: SF-268 CNS
MALME-3M melanoma = system: MALME-3M melanoma
SK-OV-3 ovarian = system: SK-OV-3 ovarian
NCI-H522 lung = system: NCI-H522 lung
NCI/ADR-RES ovarian = system: NCI/ADR-RES ovarian
EKVX NSCLC = system: EKVX NSCLC
MDA-MB-231 breast = system: MDA-MB-231 breast
SNB-19 CNS = system: SNB-19 CNS
RPMI-8226 leukemia = system: RPMI-8226 leukemia
T-47D breast = system: T-47D breast
HOP-92 NSCLC = system: HOP-92 NSCLC
ACHN renal = system: ACHN renal
CAKI-1 renal = system: CAKI-1 renal
HT29 colon = system: HT29 colon
SK-MEL-5 melanoma = system: SK-MEL-5 melanoma
HL-60(TB) leukemia = system: HL-60(TB) leukemia
BT-549 breast = system: BT-549 breast
UO-31 renal = system: UO-31 renal
OVCAR-5 ovarian = system: OVCAR-5 ovarian
SK-MEL-2 melanoma = system: SK-MEL-2 melanoma
DU-145 prostate = system: DU-145 prostate
UACC-62 melanoma = system: UACC-62 melanoma
HCT-116 colon = system: HCT-116 colon
K-562 leukemia = system: K-562 leukemia
MDA-MB-435 = system: MDA-MB-435
SF-539 CNS = system: SF-539 CNS
NCI-H226 lung = system: NCI-H226 lung
COLO 205 colon = system: COLO 205 colon
RXF 393 renal = system: RXF 393 renal

For CCOC(=O)c1c[nH]c2c(OCc3ccccc3)c3ccccc3c(O)c2c1=O, the GI50 (OVCAR-8 ovarian) was 5.6 µM, the TGI (OVCAR-8 ovarian) was 41.3 µM and the GI50 (NCI-H460 lung) was 4.29 µM. It also gave a TGI (NCI-H460 lung) of over 47.5 µM, a GI50 (NCI-H23 lung) of 6.75 µM and a TGI (NCI-H23 lung) of 28.6 µM. It also gave a GI50 (HOP-62 NSCLC) of 14.4 µM, a TGI (HOP-62 NSCLC) of 42.9 µM and a GI50 (MOLT-4 leukemia) of 6.24 µM. It also gave a TGI (MOLT-4 leukemia) of over 100 µM, a GI50 (U251 CNS) of 5.78 µM and a TGI (U251 CNS) of 25.4 µM. The GI50 (HS 578T breast) was 13.5 µM, the TGI (HS 578T breast) was 48 µM and the GI50 (IGROV1 ovarian) was 34.4 µM. For the same compound, the TGI (IGROV1 ovarian) was over 100 µM, the GI50 (CCRF-CEM leukemia) was 5.73 µM and the TGI (CCRF-CEM leukemia) was over 100 µM. It also gave a GI50 (M14 melanoma) of 11.3 µM, a TGI (M14 melanoma) of over 59.4 µM and a GI50 (SNB-75 CNS) of 11.6 µM. It also gave a TGI (SNB-75 CNS) of over 54.4 µM, a GI50 (SR leukemia) of 21.3 µM and a TGI (SR leukemia) of over 100 µM. It also gave a GI50 (A549 NSCLC) of 9.33 µM, a TGI (A549 NSCLC) of over 56 µM and a GI50 (SW-620 colon) of 7.95 µM. For the same compound, the TGI (SW-620 colon) was over 100 µM, the GI50 (OVCAR-4 ovarian) was 54.3 µM and the TGI (OVCAR-4 ovarian) was over 100 µM. The GI50 (LOX IMVI melanoma) was 6.83 µM, the TGI (LOX IMVI melanoma) was 33 µM and the GI50 (TK-10 renal) was 16 µM. It also gave a TGI (TK-10 renal) of 45.5 µM, a GI50 (HCC-2998 colon) of 37.4 µM and a TGI (HCC-2998 colon) of over 100 µM. The GI50 (OVCAR-3 ovarian) was 11.1 µM, the TGI (OVCAR-3 ovarian) was 51 µM and the GI50 (A498 renal) was 27.3 µM. For the same compound, the TGI (A498 renal) was over 78.1 µM, the GI50 (HCT-15 colon) was 11.1 µM and the TGI (HCT-15 colon) was over 100 µM. The GI50 (KM12 colon) was 6.89 µM, the TGI (KM12 colon) was over 84.5 µM and the GI50 (SK-MEL-28 melanoma) was 25.8 µM. For the same compound, the TGI (SK-MEL-28 melanoma) was over 100 µM, the GI50 (PC-3 prostate) was 2970 nM and the TGI (PC-3 prostate) was over 68 µM. For the same compound, the GI50 (786-0 renal) was 18.6 µM, the TGI (786-0 renal) was 57.4 µM and the GI50 (SN12C renal) was 22.2 µM. The TGI (SN12C renal) was over 100 µM, the GI50 (SF-295 CNS) was 2090 nM and the TGI (SF-295 CNS) was 15.5 µM. The GI50 (UACC-257 melanoma) was 2520 nM, the TGI (UACC-257 melanoma) was 6.63 µM and the GI50 (MCF7 breast) was 9.55 µM. For the same compound, the TGI (MCF7 breast) was over 67.4 µM, the GI50 (SF-268 CNS) was 12.9 µM and the TGI (SF-268 CNS) was 50.7 µM. The GI50 (MALME-3M melanoma) was 5.63 µM, the TGI (MALME-3M melanoma) was 26.6 µM and the GI50 (SK-OV-3 ovarian) was 26.3 µM. The TGI (SK-OV-3 ovarian) was over 100 µM, the GI50 (NCI-H522 lung) was 13.3 µM and the TGI (NCI-H522 lung) was over 83.9 µM. For the same compound, the GI50 (NCI/ADR-RES ovarian) was 10.9 µM, the TGI (NCI/ADR-RES ovarian) was over 64.7 µM and the GI50 (EKVX NSCLC) was 6.98 µM. It also gave a TGI (EKVX NSCLC) of 52.7 µM, a GI50 (MDA-MB-231 breast) of 15.2 µM and a TGI (MDA-MB-231 breast) of 60.8 µM. It also gave a GI50 (SNB-19 CNS) of 16.7 µM, a TGI (SNB-19 CNS) of 97.1 µM and a GI50 (RPMI-8226 leukemia) of 26.9 µM. The TGI (RPMI-8226 leukemia) was over 100 µM, the GI50 (T-47D breast) was 18.5 µM and the TGI (T-47D breast) was 69.6 µM. For the same compound, the GI50 (HOP-92 NSCLC) was 27 µM, the TGI (HOP-92 NSCLC) was 93.5 µM and the GI50 (ACHN renal) was 4.97 µM. It also gave a TGI (ACHN renal) of 33.4 µM, a GI50 (CAKI-1 renal) of 4.37 µM and a TGI (CAKI-1 renal) of 21.1 µM. It also gave a GI50 (HT29 colon) of 22.2 µM, a TGI (HT29 colon) of over 100 µM and a GI50 (SK-MEL-5 melanoma) of 2550 nM. It also gave a TGI (SK-MEL-5 melanoma) of 7.52 µM, a GI50 (HL-60(TB) leukemia) of 40.7 µM and a TGI (HL-60(TB) leukemia) of over 100 µM. It also gave a GI50 (BT-549 breast) of 12.7 µM, a TGI (BT-549 breast) of 37.8 µM and a GI50 (UO-31 renal) of 21.7 µM. For the same compound, the TGI (UO-31 renal) was over 100 µM, the GI50 (OVCAR-5 ovarian) was 54.7 µM and the TGI (OVCAR-5 ovarian) was over 100 µM. The GI50 (SK-MEL-2 melanoma) was 42.5 µM, the TGI (SK-MEL-2 melanoma) was over 100 µM and the GI50 (DU-145 prostate) was 12.1 µM. For the same compound, the TGI (DU-145 prostate) was over 74.2 µM, the GI50 (UACC-62 melanoma) was 3.1 µM and the TGI (UACC-62 melanoma) was 15.8 µM. For the same compound, the GI50 (HCT-116 colon) was 3.74 µM, the TGI (HCT-116 colon) was over 51.8 µM and the GI50 (K-562 leukemia) was 3.15 µM. The TGI (K-562 leukemia) was over 39.1 µM, the GI50 (MDA-MB-435) was 6.44 µM and the TGI (MDA-MB-435) was 15.6 µM. It also gave a GI50 (SF-539 CNS) of 2530 nM, a TGI (SF-539 CNS) of 11.2 µM and a GI50 (NCI-H226 lung) of 4.28 µM. The TGI (NCI-H226 lung) was 20.8 µM, the GI50 (COLO 205 colon) was 47 µM and the TGI (COLO 205 colon) was over 100 µM. For the same compound, the GI50 (RXF 393 renal) was 22.6 µM and the TGI (RXF 393 renal) was 55.7 µM.
